Data as given in patent US10085981B2, “Protein acyl transferase inhibitors and methods of treatment” (UNIVERSITY OF SOUTH FLORIDA, priority 2015, dated 2018).
Read-outs that look alike come from different tables or passages of the source.

Columns and labels:
Erf2 [1] = biological target: T1, Erf2 (Saccharomyces cerevisiae, UniProt Q06551); details: previously demonstrated [13]; cited from earlier work
T1 construct: made in house; host or cells: Saccharomyces cerevisiae strain RJY1842 (erf4Δ/erf4Δ), galactose-induced pESC(-Leu) vector, Ni-NTA purified

Erf2 [2] = biological target: T1, Erf2; experiment: Fluorescence-based coupled PAT assay of the rate of Erf2 autopalmitoylation; assay type: biochemical, S. cerevisiae; details: for mode of inhibition of Erf2 autopalmitoylation: inhibitor titrations varying inhibitor and palmitoyl-CoA
Method: The HTS application of protein palmitoylation was recently described, but was adjusted for this study. The production of NADH was monitored with a Biotek Mx fluorimeter (Biotek, Winooski, Vt.) using 340 nm excitation/465 nm emission. The 50 μl reaction contained 2 mM 2-Oxoglutarate (α-ketoglutamic acid), 0.25 mM NAD+, 0.2 mM Thiamine Pyrophosphate, 0.5 μg of purified 6×HIS-Erf2-(FLAG)-Erf4, 1 mM EDTA, 1 mM dithiothreitol, 8 mU 2-oxogluarate dehydrogenase (α-ketoglutarate dehydrogenase), 50 mM sodium phosphate, pH 6.8, and 0 100 μM inhibitor in 5% DMF. The reaction was initiated by the addition of 40 μM palmitoyl-CoA and monitored for 30 mins at 30° C. The first 10 mins of the reaction was analyzed to determine the initial rates of CoASH release. The PAT specific activity was determined from a standard curve of NADH production with different CoASH amounts. In these reactions, CoASH was added to the standard PAT reaction mixture (without Erf2/Erf4 complex or palmitoyl-CoA) and the reaction was allowed to proceed to equilibrium before fluorescence was measured.
The identification of palmitoylation inhibitors has been hampered by the lack of assays amenable to high throughput screening applications. Previously, we validated an assay that monitors the rate of autopalmitoylation by measuring the production of CoASH generated from the […] of palmitoyl-CoA [13]. This assay has a Z′-value of 0.87 [13]. […] This assay can be used to monitor autopalmitoylation in real time or as an end point assay, thus providing flexibility when screening small molecule compounds. Compounds with internal fluorescence or that affect the assay components are easily identified and excluded, allowing for the rapid identification of the compounds that inhibit or activate PAT autopalmitoylation activity. […]

[3] = tested on: S. cerevisiae RJY1942 (palmitoylation sensitive); experiment: Growth inhibition assay, palmitoylation-sensitive strain; assay type: cell-based; details: for selectivity: EC50 in the control strain RJY1941 as compared to the sensitive strain RJY1942: growth curves, 24 hrs
Method: The in vivo effect of the inhibitors on Ras2 palmitoylation was investigated by comparing the growth of S. cerevisiae strains previously described for our complementation assay. Briefly, the cells contain a defective allele of RAS2 that is balanced by an episomal copy of RAS2 linked to URA3. Under these conditions, the yeast strain cannot grow unless the episomal copy of RAS2 is palmitoylated. Varying concentrations of the inhibitors were added to 200 μl volumes of the yeast cells at an OD600 between 0.8 and 1.2 in a 96-well plate format. The OD600 was observed every 30 mins for 24 hrs and EC50 values were determined by graphing rate of growth against concentration of inhibitor for each inhibitor.
To examine the inhibition of Ras palmitoylation in vivo, we utilized two strains of S. cerevisiae. The yeast strain RJY1942 (palmitoylation sensitive) requires Ras2 palmitoylation for viability. The isogenic wild type control yeast strain (RJY1941) is not dependent on Ras2 palmitoylation for viability. The growth of both strains was monitored in the presence (or absence) of our inhibitors every 30 mins for 24 hrs. EC50 values were calculated using GraphPad Prism® (La Jolla, Calif.) to extrapolate the effective concentration of each inhibitor that caused a 50% reduction in growth (FIG. 9). […] Compounds 13, 25, and 2-BP show a modest selectivity for the sensitive strain, RJY1942, over the control strain, RJY1941, resulting in a 2-fold greater EC50 value in the control strain as compared to the sensitive strain (values listed in FIG. 5, right panel). […] Additional work is needed to determine the mechanism of growth inhibition and selectivity of these compounds.

Erf2 [4] = biological target: T1, Erf2; experiment: BODIPY-C12:0 gel-based assay of steady-state Erf2 autopalmitoylation; assay type: biochemical, S. cerevisiae
Method: BODIPY®-C12:0-CoA (40 μM final, unless specified otherwise) was added to a 50 μl reaction containing approximately 0.5 μg enzyme (6×HIS-Erf2-(FLAG)-Erf4) and 100 μM inhibitors in 5% DMF in 50 mM sodium phosphate buffer, pH 6.8. The reactions were incubated 10 mins with inhibitor, and then the reaction was initiated with the addition of BODIPY®-C12:0-CoA, and incubated 15 mins at 30° C. The reaction was terminated by the addition of 5× non-reducing protein loading buffer. Each reaction was heated at 65° C. for 3 mins and then subjected to SDS-PAGE (12%). The gel was rinsed three times in ddH2O and visualized on the Typhoon 9410 Variable Mode Imager (GE Healthcare, Piscataway, N.J.) for BODIPY® fluorescence (ex. 488 nm/em. 532 nm) to visualize co-migration of the BODIPY® signal with 6×HIS-Erf2-(FLAG)-Erf4. The amount of 6×HIS-Erf2-(FLAG)-Erf4 was determined empirically using SDS-PAGE analysis under reducing conditions against a standard curve of bovine serum albumin.
To determine if the ten compounds identified in this study were inhibiting autopalmitoylation, and not targeting hydrolysis of the enzyme, steady-state autopalmitoylation was evaluated at 100 μM of each compound compared to 100 μM 2-BP and DMF (vehicle) alone. […] From these screens we observed a decrease in BODIPY® fluorescence at the apparent molecular weight of Erf2. […]

[5] = tested on: S. cerevisiae RJY1942 (sensitized); experiment: Yeast cell spot assay, sensitized strain; assay type: cell-based; details: for inhibition at 5 µM: Saccharomyces cerevisiae
Method: (§1) Following 24 hrs incubation with varying concentrations of the inhibitors in 1% DMF, S. cerevisiae strains RJY1941 and RJY1942 were then diluted 1/100, and spotted onto SC-Ura plates with 2% glucose. Cytotoxicity data was obtained by detecting the colony growth, following 48 hrs incubation at 30° C., with white light detection on the Bio-Rad Molecular Imager® ChemiDoc™ XRS+ (Hercules, Calif.) and performing densitometry with Bio-Rad ImageLab™ Software (Hercules, Calif.). Triplicate reactions were plated in triplicate. Values were normalized to vehicle control (1% DMF) for each plate, and then the averages of each reaction were compared for statistical analysis.
(§2) We next compared the ability of either strain to grow following the 24 hrs incubation with Compounds 13, 14, or 25. Serial dilutions of RJY1941 and RJY1942 were spotted on agar plates following incubation for 24 hrs with varying inhibitor concentrations. […] Conversely, compound 13 inhibited (100%) the growth of RJY1942 (sensitized) at 5 μM.

[6] = tested on: S. cerevisiae RJY1941 (control); experiment: Yeast cell spot assay, control strain; assay type: cell-based
Method: as §1, §2

[7] = 20 μM, spotted after 24 hrs incubation
[8] = concentrations lower than 20 μM (2.5, 5, 10 μM)
[9] = spotted after 24 hrs incubation, read-out: inhibition of growth of RJY1942 (sensitized)

T1 sequence (Q06551 whole entry): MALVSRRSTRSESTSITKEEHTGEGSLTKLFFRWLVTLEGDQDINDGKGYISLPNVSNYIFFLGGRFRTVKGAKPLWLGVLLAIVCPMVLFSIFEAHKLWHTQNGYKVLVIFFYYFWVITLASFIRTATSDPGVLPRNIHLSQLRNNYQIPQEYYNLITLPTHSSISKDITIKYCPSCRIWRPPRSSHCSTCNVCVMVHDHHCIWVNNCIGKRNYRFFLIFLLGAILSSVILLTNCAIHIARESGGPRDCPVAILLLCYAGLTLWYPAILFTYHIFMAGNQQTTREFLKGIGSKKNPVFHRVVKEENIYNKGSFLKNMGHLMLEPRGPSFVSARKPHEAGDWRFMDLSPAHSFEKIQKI

| Compound | mode of inhibition of Erf2 autopalmitoylation (Erf2 [1]) | Ki (Erf2 [2]) | VMAX for the Palmitoyl-CoA substrate (Erf2 [2]; inhibitor at 25 μM) | VMAX for the Palmitoyl-CoA substrate (Erf2 [2]; inhibitor at 50 μM) | VMAX for the Palmitoyl-CoA substrate (Erf2 [2]; inhibitor at 100 μM) | EC50 ([3]; Saccharomyces cerevisiae, read-out: EC50 (50% reduction in growth)) | selectivity: EC50 in the control strain RJY1941 as compared to the sensitive strain RJY1942 [3] | Ki (Erf2 [4]; dose response curves of steady-state autopalmitoylation, read-out: steady-state autopalmitoylation inhibition constant (Ki), gel-based assay) | inhibition of yeast growth in spot assay ([5]; 2.5-20 μM on solid yeast medium, strain not specified) | inhibition of growth of RJY1941 (control) [6, 7] | inhibition of growth of RJY1941 (control) [6, 8] | mode of inhibition of Erf2 autopalmitoylation (Erf2 [2]) | mode of inhibition of steady-state Erf2 autopalmitoylation (Erf2 [4]; 25, 50, 100 μM compound at varying BODIPY-C12-CoA) | inhibition at 5 µM [5, 9] | inhibition of growth of RJY1942 (sensitized) ([5]; concentrations higher than 5 μM) | inhibition at 5 µM ([5]; read-out: inhibition of growth of RJY1942 (sensitized), relative to that observed for compound 13) |
| --- | --- | --- | --- | --- | --- | --- | --- | --- | --- | --- | --- | --- | --- | --- | --- | --- |
| CCCCCCCCCCCCCCC(Br)C(=O)O (stereo not drawn) [Compound 2-BP, 2-bromopalmitic acid, reference compound] | uncompetitive or mixed inhibitor | 59 µM | 160 ± 5 µM | 126 ± 23 µM | 51 ± 8 µM | 12.5 µM | 2 fold | 79 µM | did not inhibit | – | – | – | – | – | – | – |
| CC(C)Cc1ccc(C(C)CN2CCNC[C@@H]2CCCCN2CCN(CC(C)c3ccc(CC(C)C)cc3)[C@@H](Cc3ccc(O)cc3)C2)cc1 (stereo partly drawn) [Compound 13, 4-(((2S)-1-(2-(4-isobutylphenyl)propyl)-4-(4-((2S)-1-(2-(4-isobutylphenyl)propyl)piperazin-2-yl)butyl)piperazin-2-yl)methyl)phenol] | – | – | 243 ± 20 µM | 354 ± 26 µM | 631 ± 94 µM | – | 2 fold | – | – | completely inhibited | no detectable effect | Competitively | acting competitively | 100% | – | – |
| CC(C)Cc1ccc(C(C)CN2CCNC[C@@H]2CCCCN2CCN(CCc3cc(C(F)(F)F)cc(C(F)(F)F)c3)[C@@H](Cc3ccc(O)cc3)C2)cc1 (stereo partly drawn) [Compound 14, 4-(((2S)-1-(3,5-bis(trifluoromethyl)phenethyl)-4-(4-((2S)-1-(2-(4-isobutylphenyl)propyl)piperazin-2-yl)butyl)piperazin-2-yl)methyl)phenol] | – | – | – | – | – | – | – | – | – | completely inhibited | no detectable effect | – | – | ~10% | total inhibition | – |
| CC(C)Cc1ccc(C(C)CN2CCN(CCCC[C@H]3CNCCN3CCc3cc(C(F)(F)F)cc(C(F)(F)F)c3)C[C@@H]2Cc2ccc(O)cc2)cc1 (stereo partly drawn) [Compound 25, 4-(((2S)-4-(4-((S)-1-(3,5-bis(trifluoromethyl)phenethyl)piperazin-2-yl)butyl)-1-(2-(4-isobutylphenyl)propyl)piperazin-2-yl)methyl)phenol] | – | – | 307 ± 30 µM | 344 ± 34 µM | 542 ± 60 µM | – | 2 fold | – | – | completely inhibited | no detectable effect | Competitively | – | – | – | ~90% |
